Data on 22 molecules can be found in ChEMBL document CHEMBL5303573, “Mapping human microbiome drug metabolism by gut bacteria and their genes” (Nature, 2019).

Series [1] in a line: The drug is tested on Clostridium symbiosum strain: ATCC14940 for biotransformation. The drug concentrations were measured before and after a 12-h incubation by liquid-chromatography-coupled mass spectrometry (LC–MS). The following applies: 2 µM.
For series [2] the following is noted: bacteroides fragilis, 12 h, 2 µM.
Description: The drug is tested on Bacteroides fragilis strain: DS-208 for biotransformation. The drug concentrations were measured before and after a 12-h incubation by liquid-chromatography-coupled mass spectrometry (LC–MS)
For series [3] the following is noted: bacteroides stercoris, 12 h, 2 µM.
Description: The drug is tested on Bacteroides stercoris strain: ATCC43183 for biotransformation. The drug concentrations were measured before and after a 12-h incubation by liquid-chromatography-coupled mass spectrometry (LC–MS)
The conditions of series [4]: enterocloster bolteae, 12 h, 2 µM.
Description: The drug is tested on Clostridium bolteae strain: ATCCBAA-613 for biotransformation. The drug concentrations were measured before and after a 12-h incubation by liquid-chromatography-coupled mass spectrometry (LC–MS)
Series [5] can be described thus: The drug is tested on Bifidobacterium ruminantium strain: fecal isolate for biotransformation. The drug concentrations were measured before and after a 12-h incubation by liquid-chromatography-coupled mass spectrometry (LC–MS). The following applies: 2 µM.
Series [6] is described as follows: The drug is tested on Clostridium sp. strain: fecal isolate for biotransformation. The drug concentrations were measured before and after a 12-h incubation by liquid-chromatography-coupled mass spectrometry (LC–MS). The conditions noted are these: 2 µM.
Series [7] in a line: The drug is tested on Eggerthella lenta strain: ATCC25559 for biotransformation. The drug concentrations were measured before and after a 12-h incubation by liquid-chromatography-coupled mass spectrometry (LC–MS). The following applies: 2 µM.

Turning to `CCC1(c2ccc(N)cc2)CCC(=O)NC1=O` (stereo not drawn) [AMINOGLUTETHIMIDE], the “Bacterial Biotransformation” value in series [1], in series [2], in series [3] and in series [4] was “Compound NOT metabolized” each time.

Consider `CN1CCC(=C2c3ccccc3CCc3cccnc32)CC1.O=C(O)/C=C\C(=O)O.O=C(O)/C=C\C(=O)O` [AZATADINE MALEATE], for which the “Bacterial Biotransformation” value in series [5], in series [6], in series [1], in series [2], in series [3] and in series [4] was “Compound NOT metabolized” throughout.

On to `CCOC(=O)[C@H](CCc1ccccc1)N[C@@H](C)C(=O)N1Cc2ccccc2C[C@H]1C(=O)O`, for which the “Bacterial Biotransformation” value was “Compound metabolized” in series [5]; “Compound metabolized” in series [6]; “Compound metabolized” in series [1]; “Compound metabolized” in series [2]; “Compound metabolized” in series [3]; “Compound NOT metabolized” in series [4].

As to `CN1C[C@H](C(=O)N[C@]2(C)O[C@@]3(O)[C@@H]4CCCN4C(=O)[C@H](Cc4ccccc4)N3C2=O)C=C2c3cccc4[nH]cc(c34)C[C@H]21.CN1C[C@H](C(=O)N[C@]2(C)O[C@@]3(O)[C@@H]4CCCN4C(=O)[C@H](Cc4ccccc4)N3C2=O)C=C2c3cccc4[nH]cc(c34)C[C@H]21.O=C(O)C(O)C(O)C(=O)O` [ERGOTAMINE TARTRATE], the “Bacterial Biotransformation” value in series [5] is reported as “Compound metabolized”; in series [7] it was “Compound NOT metabolized”; in series [1], “Compound metabolized”; in series [2], “Compound metabolized”; in series [3] it was “Compound metabolized”; in series [4] it was “Compound metabolized”.

In the case of `O=C1CN2Cc3c(ccc(Cl)c3Cl)N=C2N1` [ANAGRELIDE], the “Bacterial Biotransformation” value is reported as “Compound metabolized” in series [6]; “Compound NOT metabolized” in series [1]; “Compound NOT metabolized” in series [2]; “Compound NOT metabolized” in series [3]; “Compound NOT metabolized” in series [4].

Consider `CCCC1O[C@@H]2C[C@H]3[C@@H]4CCC5=CC(=O)C=C[C@]5(C)[C@H]4[C@@H](O)C[C@]3(C)[C@]2(C(=O)CO)O1` (stereo partly drawn) [BUDESONIDE], for which the “Bacterial Biotransformation” value was “Compound NOT metabolized” in series [5]; “Compound metabolized” in series [6]; “Compound NOT metabolized” in series [1]; “Compound metabolized” in series [3]; “Compound NOT metabolized” in series [4].

Consider `CCOC(=O)[C@H](CCc1ccccc1)N[C@H]1CCc2ccccc2N(CC(=O)O)C1=O` [BENAZEPRIL], for which the “Bacterial Biotransformation” value in series [5] is reported as “Compound NOT metabolized”; in series [6] it was “Compound NOT metabolized”; in series [1], “Compound NOT metabolized”; in series [2], “Compound metabolized”; in series [3], “Compound metabolized”; in series [4] it was “Compound NOT metabolized”.

Turning to `CC(C)(C#N)c1cc(Cn2cncn2)cc(C(C)(C)C#N)c1` [ANASTROZOLE], the “Bacterial Biotransformation” value was “Compound metabolized” in series [5]; “Compound metabolized” in series [6]; “Compound NOT metabolized” in series [1]; “Compound NOT metabolized” in series [2]; “Compound metabolized” in series [3]; “Compound NOT metabolized” in series [4].

For `NC12CC3CC(CC(C3)C1)C2` [AMANTADINE], the “Bacterial Biotransformation” value in series [5] is “Compound metabolized”; in series [6], “Compound NOT metabolized”; in series [1] it was “Compound NOT metabolized”; in series [2], “Compound metabolized”; in series [3] it was “Compound NOT metabolized”; in series [4] it was “Compound NOT metabolized”.

Turning to `CCN(CC)CCNC(=O)c1ccc(NC(C)=O)cc1` [ACECAINIDE], the “Bacterial Biotransformation” value in series [6], in series [1], in series [2] and in series [4] was “Compound NOT metabolized” in each case.

Take `CCCC(C)(COC(N)=O)COC(=O)NC(C)C` (stereo not drawn) [CARISOPRODOL]: the “Bacterial Biotransformation” value in series [5] was “Compound NOT metabolized”; in series [6] it was “Compound metabolized”; in series [1], “Compound NOT metabolized”; in series [2], “Compound metabolized”; in series [3], “Compound metabolized”; in series [4] it was “Compound NOT metabolized”.

For `COc1ccc2c(c1OC)C(=O)O[C@@H]2[C@H]1c2c(cc3c(c2OC)OCO3)CCN1C` [NOSCAPINE], the “Bacterial Biotransformation” value was “Compound metabolized” in series [5]; “Compound NOT metabolized” in series [7]; “Compound metabolized” in series [1]; “Compound metabolized” in series [2]; “Compound metabolized” in series [3]; “Compound metabolized” in series [4].

On to `Clc1ccc(Cn2c(CN3CCCC3)nc3ccccc32)cc1` [CLEMIZOLE], for which the “Bacterial Biotransformation” value in series [5], in series [1], in series [2], in series [3] and in series [4] was “Compound NOT metabolized” throughout.

With `CN(C)CCc1c[nH]c2ccc(CS(=O)(=O)N3CCCC3)cc12` [ALMOTRIPTAN], the “Bacterial Biotransformation” value in series [6], in series [1], in series [2], in series [3] and in series [4] was “Compound NOT metabolized” each time.

With `CN(C)CCOC(c1ccc(Cl)cc1)c1ccccn1.O=C(O)/C=C\C(=O)O` (stereo not drawn) [CARBINOXAMINE MALEATE], the “Bacterial Biotransformation” value in series [6], in series [1], in series [2], in series [3] and in series [4] was “Compound NOT metabolized” each time.

Consider `NS(=O)(=O)c1cc2c(cc1Cl)N=C(CSCc1ccccc1)NS2(=O)=O` [BENZTHIAZIDE], for which the “Bacterial Biotransformation” value in series [5] was “Compound NOT metabolized”; in series [6], “Compound metabolized”; in series [1] it was “Compound NOT metabolized”; in series [2], “Compound NOT metabolized”; in series [3] it was “Compound NOT metabolized”; in series [4], “Compound NOT metabolized”.

In the case of `CCOC(=O)[C@H](CCc1ccccc1)N[C@@H](C)C(=O)N1[C@H](C(=O)O)C[C@H]2CCCC[C@@H]21` [TRANDOLAPRIL], the “Bacterial Biotransformation” value was “Compound metabolized” in series [5], “Compound NOT metabolized” in series [1], “Compound metabolized” in series [2] and “Compound metabolized” in series [4].

With `C[N+]12CCC(CC1)C(OC(=O)C(O)(c1ccccc1)c1ccccc1)C2.[Br-]` (stereo not drawn) [CLIDINIUM BROMIDE], the “Bacterial Biotransformation” value in series [6], in series [1], in series [2] and in series [3] was “Compound NOT metabolized” each time.

Consider `COc1cc2c(c(OC)c1OC)-c1ccc(OC)c(=O)cc1[C@@H](NC(C)=O)CC2` [COLCHICINE], for which the “Bacterial Biotransformation” value in series [5] is reported as “Compound NOT metabolized”; in series [6], “Compound metabolized”; in series [1] it was “Compound metabolized”; in series [2] it was “Compound metabolized”; in series [3], “Compound metabolized”; in series [4], “Compound NOT metabolized”.

For `Cc1nc2n(c(=O)c1CCN1CCC(c3noc4cc(F)ccc34)CC1)CCCC2` [RISPERIDONE], the “Bacterial Biotransformation” value in series [6] is given as “Compound metabolized”; in series [1], “Compound metabolized”; in series [2] it was “Compound metabolized”; in series [3], “Compound NOT metabolized”; in series [4], “Compound NOT metabolized”.

On to `COc1cc(NC(C)CCCN)c2ncccc2c1.O=P(O)(O)O.O=P(O)(O)O` (stereo not drawn) [PRIMAQUINE PHOSPHATE], for which the “Bacterial Biotransformation” value in series [5] is listed as “Compound metabolized”; in series [7], “Compound NOT metabolized”; in series [1] it was “Compound metabolized”; in series [2], “Compound NOT metabolized”; in series [3], “Compound NOT metabolized”; in series [4], “Compound metabolized”.

For `CC(C)NCC(O)COc1ccc(COCCOC(C)C)cc1.CC(C)NCC(O)COc1ccc(COCCOC(C)C)cc1.O=C(O)/C=C/C(=O)O` (stereo not drawn) [BISOPROLOL FUMARATE], the “Bacterial Biotransformation” value in series [5], in series [6], in series [1], in series [2], in series [3] and in series [4] was “Compound NOT metabolized” in each case.
